# Experimental data published in publication PMC3529809 (Steroids, 2012).
# “Also recorded” adds a separate entry of the source.
# How the values were obtained:
# [1] = molecular target: T1, human ERβ (Homo sapiens, UniProt Q92731); assay: [3H] E2 ligand binding competition; settings: IC50 for ERβ, competition with 30 nM [3H] E2, Fig. 6B
# [2] = molecular target: T1, human ERβ; assay: ERELUC transient transfection reporter assay, ERβ in HepG2 cells; type: cell-based; settings: 5 µM, 24 h, Fig. 1B; result in words
# [3] = system: TFF1 (pS2), PGR (PR), CTSD (cathepsin D) transcription; assay: QRT-PCR of endogenous ER-target genes in ERα-transfected HEK-293 cells; type: cell-based, human; settings: 10 nM E2 or 5 µM sterol, 24 h, Fig. 5A
# [4] = system: NRF1 (NRF-1) expression; assay: QRT-PCR of NRF1 in ERβ-transfected HepG2 cells; type: cell-based, human; settings: 10 nM E2 or 5 µM sterol, 24 h, Fig. 5B
# [5] = system: MCF-7 human breast cancer cells; assay: Cell proliferation BrdU assay; type: cell-based; settings: 48 h BrdU; 10 nM E2, 5 µM sterols; Fig. 7
# [6] = molecular target: ERβ; settings: expressed in COS-1 cells, cited from earlier work
# [7] = system: MCF-7 cells; settings: cited from earlier work
# [8] = system: ERα+ MCF-7 and triple-negative MDA-MB-231 and Hs578T breast cancer cells; settings: 100 µM; cited from earlier work
# [9] = system: diethylnitrosamine-induced hepatic tumors; settings: 0.6% in the diet, rats; cited from earlier work
# [10] = system: ZR-75-1 breast cancer xenografts; settings: twice daily s.c. injections of 0.3 mg, nude mice; cited from earlier work
# [11] = system: NMU and DMBA induced tumors of the mammary gland; settings: oral, rats; cited from earlier work
# T1 sequence (Q92731 whole entry): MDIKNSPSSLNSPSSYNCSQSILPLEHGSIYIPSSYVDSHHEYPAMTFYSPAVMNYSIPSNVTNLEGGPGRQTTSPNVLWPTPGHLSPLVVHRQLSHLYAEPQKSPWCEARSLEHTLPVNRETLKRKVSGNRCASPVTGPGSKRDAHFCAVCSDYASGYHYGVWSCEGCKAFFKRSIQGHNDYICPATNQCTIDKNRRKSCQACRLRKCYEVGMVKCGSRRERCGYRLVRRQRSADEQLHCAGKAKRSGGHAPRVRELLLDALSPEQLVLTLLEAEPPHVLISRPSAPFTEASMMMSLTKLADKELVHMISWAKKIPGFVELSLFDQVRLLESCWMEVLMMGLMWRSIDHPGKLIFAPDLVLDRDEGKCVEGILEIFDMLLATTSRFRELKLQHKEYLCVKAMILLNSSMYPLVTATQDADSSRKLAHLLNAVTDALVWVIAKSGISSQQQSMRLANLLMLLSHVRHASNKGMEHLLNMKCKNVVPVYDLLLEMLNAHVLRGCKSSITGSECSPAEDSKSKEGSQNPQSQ
structure (smiles),measurement,setting,value
"C[C@]12CC[C@H](O)CC1=CC[C@@H]1[C@@H]2CC[C@]2(C)C(=O)CC[C@@H]12 [DHEA, 3β-hydroxy-androst-5-ene-17-one]",IC50,[1],500000 nM
same,ERELUC activity in ERβ-expressing HepG2 cells,[2],significantly induced
same,CTSD (cathepsin D) expression,[3],increased
same,PGR (PR) expression,[3],increased
same,TFF1 (pS2) expression,[3],increased
same,NRF-1 mRNA expression,[4],statistically significant increase; also recorded: low induction
same,MCF-7 cell proliferation,[5],increased
same,Kd,[6]; read-out: Kd for ERβ,~500 nM
same,Ki,[6]; read-out: Ki for ERβ,~500 nM
same,proliferation of MCF-7 cells,[7]; 1–10 µM concentrations,stimulated proliferation
same,MCF-7 cell growth,"[7]; DHEA 0.5 µM, ADIOL 2 nM",stimulated
same,MCF-7 cell proliferation,[7]; less than E2,increased cell proliferation
same,"proliferation, cell cycle progression and migration",[8],inhibit
same,tumor cell growth,[9],inhibited tumor cell growth
same,estrone-stimulated growth of xenografts,[10],suppressed
same,effect in the mammary gland after chemical induction of tumors,[11],anti-carcinogenic effects
